Data reported in article PMC8903076 (Journal of medicinal chemistry, 2021).

Molecular target: human GCGR (Homo sapiens, UniProt P47871)
Test: CRE-luciferase reporter assay
Format: cell-based
Settings: HEK293 cells stably expressing human GCGR

Chain of human GCGR (P47871 26-477): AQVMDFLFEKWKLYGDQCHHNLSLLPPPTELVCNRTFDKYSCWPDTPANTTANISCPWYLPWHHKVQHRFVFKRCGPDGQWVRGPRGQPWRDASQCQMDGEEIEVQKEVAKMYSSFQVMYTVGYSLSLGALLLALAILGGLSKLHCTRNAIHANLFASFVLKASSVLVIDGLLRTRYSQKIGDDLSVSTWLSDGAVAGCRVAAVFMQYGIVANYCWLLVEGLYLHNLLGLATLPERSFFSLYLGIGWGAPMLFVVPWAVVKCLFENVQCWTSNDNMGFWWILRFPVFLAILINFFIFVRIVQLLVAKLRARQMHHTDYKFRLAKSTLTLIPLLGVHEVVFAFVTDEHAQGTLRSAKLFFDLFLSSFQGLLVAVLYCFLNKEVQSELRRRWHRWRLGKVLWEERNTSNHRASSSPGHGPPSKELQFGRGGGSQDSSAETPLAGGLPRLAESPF

activity in activating GCGR (in words): completely lost the activity
Substance: H-HAibQGTFTSDYSKYLDSRRAQDFVK^TailWLX^1T-NH2 [compound 18]
